# Active and inactive are the calls of the source.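 Rule for the calls: active = fitted curve reaches a 40% rise in fluorescent cells at or below the top valid dose; inactive = opposite-direction effect, or the rest.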
# Test: compound fluorescence in GFP channel, mTEFS cells – imaging, mTEFS fibroblasts, cherry-pick, artefact control for X-chromosome reactivation project, dose response (AID 743396);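 note: raw share of Hoechst-counted cells scored GFP positive without control normalization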
# Settings: mTEFS fibroblasts autofluorescence, GFP-channel imaging, 3 days; at 19.5 µM (top of the series); cells pretreated with 5-aza-dC
row,Structure (SMILES),% fluorescent cells increase
1,Cc1noc(C)c1S(=O)(=O)Nc1ccc2c(c1)C(=O)N([C@H](C)CO)C[C@H](C)[C@H](CN(C)C(=O)Nc1ccc(F)cc1)OCCCC[C@H](C)O2,0% (inactive)
2,Cc1ccsc1/C=N/n1c(-c2cc(-c3ccccc3)n[nH]2)n[nH]c1=S,0% (inactive)
3,C=CCn1c(=S)[nH]c2scc(-c3ccco3)c2c1=O,0% (inactive)
4,CN1OC[C@@H]2CN(Cc3ccccc3)[C@H](c3cccc(N4CCOCC4)c3)C[C@@H]21,0.013% (inactive)
5,CCCN(C(=O)c1ccc(-n2cncn2)c([N+](=O)[O-])c1)C1CCS(=O)(=O)C1 (centres undefined),0.034% (inactive)
6,CC(=O)c1cccc(-c2ccc3c(c2)C(C)(Cc2ccc(S(C)(=O)=O)cc2)C(=O)N3)c1 (centres undefined),0% (inactive)
7,CSc1ccc(CNCC2CCCO2)cc1 (centres undefined),0.293% (inactive)
8,Cc1ccc2c(COC(=O)C34CC5CC(CC(C5)C3)C4)cc(=O)oc2c1,0% (inactive)
9,CC(=O)Nc1sc(C)c(C)c1C(=O)OCC(=O)Nc1cc(S(C)(=O)=O)ccc1Cl,0.274% (inactive)
10,CCOC(=O)C1=C(C)NC(=S)NC1/C=C/c1ccccc1 (centres undefined),-0.004% (inactive)
11,OC[C@@H]1Nc2ccc(C#Cc3ccccc3)cc2[C@H]2[C@@H]1CCN2Cc1nccs1,0.018% (inactive)
12,Cc1occc1C(=O)N/N=C/C(Br)=C\c1ccccc1,-0.004% (inactive)
13,CCN(CC)CCCNC1=C(Cl)C(=O)c2ccccc2C1=O,-0.011% (inactive)
14,CN1c2ccc(-c3ccc(C#N)cc3)cc2[C@@H]2[C@@H](CCN2C(=O)NC2CCCCC2)[C@H]1CO,0.092% (inactive)
15,COc1ccc2c3c([nH]c2c1)[C@H](CO)N(C(=O)C1CCCC1)CC31CN(Cc2nccs2)C1,0.113% (inactive)
16,CCCCNc1nc2c(-c3ccccc3)nnn2c2ccccc12,0.006% (inactive)
17,O=C(Nc1ccc(F)cc1)N1CC(=O)N2[C@H](CO)[C@H](c3ccc(C#Cc4ccc(F)cc4)cc3)[C@@H]2C1,-0.166% (inactive)

row,Structure (SMILES),% fluorescent cells increase
1,COc1ccccc1/C=C/C(=O)OCCCN(C)C,0% (inactive)
2,Nc1ccccc1C#CC(=O)c1ccccc1,0% (inactive)
3,COc1ccc(-c2noc(-c3cccs3)n2)cc1OC,0.073% (inactive)
4,CCCC(=O)OCCNc1cc(Sc2nccn2C)c2nonc2c1[N+](=O)[O-],0% (inactive)
5,C[C@H](CO)N1C[C@H](C)[C@H](CN(C)C(=O)Nc2ccc(F)cc2)Oc2ncc(C#Cc3cccc(F)c3)cc2C1=O,-0.166% (inactive)
6,COc1cccc(CNC(=O)c2ccc(NC(=O)CC3SC(N4CCCC4)=NC3=O)cc2)c1 (centres undefined),0% (inactive)
7,CCCn1c(SCC(=O)NCc2ccc(C)cc2)n[nH]c1=O,-0.007% (inactive)
8,CN(C)CCN(Cc1ccc(Cl)cc1)c1ccccn1,-0.004% (inactive)
9,COc1ccc(Cl)cc1C(=O)Nc1ccccc1N1CCCCC1,2.45% (inactive)
10,CC1=C(Cl)C2=NS(=O)(=O)CCN2C=C1Cl,1.51% (inactive)
11,COCCN(C(=O)c1ccc2c(c1)C(=O)N(c1ccccc1Cl)C2=O)c1c(N)n(CC(C)C)c(=O)[nH]c1=O,1.41% (inactive)
12,CCN(CC)S(=O)(=O)c1ccc(Cl)c(NC(=O)COC(=O)c2c(C)noc2C)c1,0.009% (inactive)
13,CC(C)CC(=O)Nc1c2c(nn1-c1ccc(F)cc1)CSC2,0.007% (inactive)
14,Cc1cc(C(=O)Nc2ccc(Cl)c(S(=O)(=O)N3CCOCC3)c2)c2ccccc2n1,0.116% (inactive)
15,CCOC(=O)c1sc(Nc2ccc(Br)cc2)nc1C,1.37% (inactive)
16,CC(=O)c1ccc2c(c1)OCCOCCOCCOCCOCCO2,0.551% (inactive)
17,CS(=O)(=O)c1ccc(S(=O)CC(=O)OCc2ccccc2)c([N+](=O)[O-])c1 (centres undefined),0% (inactive)

# Reference: PubChem BioAssay AID743396 (Broad Institute, 2014)
